According to PubChem BioAssay AID2060493 (Molecular Pharmacology Branch, DTP, NCI, 2025):

System: 616215-338-R-J1-PDC tumor spheroids, viability
Assay: Anticancer human tumor 616215-338-R-J1-PDC patient-derived colon adenocarcinoma cell line growth inhibition [GQUAD]
Conditions: spheroids with HUVEC and MSC; for IC50: curve of first compound; for viability, T/C: stronger effect = lower value
Summary of the method: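 Viability of tumor cells grown as complex spheroids with endothelial and stromal cells, exposed to drug combinations. Top concentration at or near clinical Cmax (else 10 microM), diluted in half-log increments.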

[1] = second compound 0.0316 µM, first compound 0.000999 µM
[2] = second compound 0.0316 µM, first compound 0.00316 µM
[3] = second compound 0.0316 µM, first compound 0.00999 µM
[4] = second compound 0.0316 µM, first compound 0.0316 µM
[5] = second compound 0.0316 µM, first compound 0.0999 µM
[6] = second compound 0.0316 µM, first compound 0.316 µM
[7] = second compound 0.1 µM, first compound 0.000999 µM
[8] = second compound 0.1 µM, first compound 0.00316 µM
[9] = second compound 0.1 µM, first compound 0.00999 µM
[10] = second compound 0.1 µM, first compound 0.0316 µM
[11] = second compound 0.1 µM, first compound 0.0999 µM
[12] = second compound 0.1 µM, first compound 0.316 µM
[13] = second compound 0.316 µM, first compound 0.000999 µM
[14] = second compound 0.316 µM, first compound 0.00316 µM
[15] = second compound 0.316 µM, first compound 0.00999 µM
[16] = second compound 0.316 µM, first compound 0.0316 µM
[17] = second compound 0.316 µM, first compound 0.0999 µM
[18] = second compound 0.316 µM, first compound 0.316 µM
[19] = second compound 1 µM, first compound 0.000999 µM
[20] = second compound 1 µM, first compound 0.00316 µM
[21] = second compound 1 µM, first compound 0.00999 µM
[22] = second compound 1 µM, first compound 0.0316 µM
[23] = second compound 1 µM, first compound 0.0999 µM
[24] = second compound 1 µM, first compound 0.316 µM
[25] = second compound 3.16 µM, first compound 0.000999 µM
[26] = second compound 3.16 µM, first compound 0.00316 µM
[27] = second compound 3.16 µM, first compound 0.00999 µM
[28] = second compound 3.16 µM, first compound 0.0316 µM
[29] = second compound 3.16 µM, first compound 0.0999 µM
[30] = second compound 3.16 µM, first compound 0.316 µM
[31] = second compound 10 µM, first compound 0.000999 µM
[32] = second compound 10 µM, first compound 0.00316 µM
[33] = second compound 10 µM, first compound 0.00999 µM
[34] = second compound 10 µM, first compound 0.0316 µM
[35] = second compound 10 µM, first compound 0.0999 µM
[36] = second compound 10 µM, first compound 0.316 µM
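Note: spheroids exposed to agents for 7 days before readout.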
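Throughout, for viability, T/C: percent viability relative to DMSO vehicle control wells taken as 100%.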

CCc1c2c(nc3ccc(O)cc13)-c1cc3c(c(=O)n1C2)COC(=O)[C@]3(O)CC + Cc1[nH]c2ccc(F)cc2c1-c1nc2c3cccnc3c3ncccc3c2[nH]1
IC50 (second compound 0.0316 µM): 16.7 nM
IC50 (second compound 0.1 µM): 9.2 nM
IC50 (second compound 0.316 µM): 8.78 nM
IC50 (second compound 1 µM): 12 nM
IC50 (second compound 3.16 µM): 13.2 nM
IC50 (second compound 10 µM): 7.87 nM
viability, T/C [1]: 97.3%
viability, T/C [2]: 81.9%
viability, T/C [3]: 53.6%
viability, T/C [4]: 43%
viability, T/C [5]: 23.4%
viability, T/C [6]: 12.8%
viability, T/C [7]: 94.5%
viability, T/C [8]: 100%
viability, T/C [9]: 46.3%
viability, T/C [10]: 33.1%
viability, T/C [11]: 24.9%
viability, T/C [12]: 19.9%
viability, T/C [13]: 96.5%
viability, T/C [14]: 90.3%
viability, T/C [15]: 42.5%
viability, T/C [16]: 32.3%
viability, T/C [17]: 21.8%
viability, T/C [18]: 13.8%
viability, T/C [19]: 108%
viability, T/C [20]: 76.8%
viability, T/C [21]: 58.9%
viability, T/C [22]: 28.5%
viability, T/C [23]: 21.7%
viability, T/C [24]: 16.4%
viability, T/C [25]: 98.5%
viability, T/C [26]: 86.5%
viability, T/C [27]: 51.2%
viability, T/C [28]: 35.2%
viability, T/C [29]: 20.7%
viability, T/C [30]: 14.5%
viability, T/C [31]: 90.3%
viability, T/C [32]: 74.9%
viability, T/C [33]: 42.5%
viability, T/C [34]: 24.5%
viability, T/C [35]: 20.5%
viability, T/C [36]: 13.4%

Cc1[nH]c2ccccc2c1CCNCc1ccc(/C=C/C(=O)NO)cc1 + CN(C)c1ccc(Nc2c3ccc(NC(=O)CCN4CCCC4)cc3nc3cc(NC(=O)CCN4CCCC4)ccc23)cc1
IC50 (second compound 0.0316 µM): 174 nM
IC50 (second compound 0.1 µM): 132 nM
IC50 (second compound 0.316 µM): 134 nM
IC50 (second compound 1 µM): 118 nM
IC50 (second compound 3.16 µM): 90.8 nM
IC50 (second compound 10 µM): 66.1 nM
viability, T/C [1]: 104%
viability, T/C [2]: 102%
viability, T/C [3]: 104%
viability, T/C [4]: 107%
viability, T/C [5]: 83.1%
viability, T/C [6]: 14.2%
viability, T/C [7]: 93.1%
viability, T/C [8]: 99.5%
viability, T/C [9]: 104%
viability, T/C [10]: 88.8%
viability, T/C [11]: 61.2%
viability, T/C [12]: 15.8%
viability, T/C [13]: 101%
viability, T/C [14]: 103%
viability, T/C [15]: 113%
viability, T/C [16]: 104%
viability, T/C [17]: 62.7%
viability, T/C [18]: 12.3%
viability, T/C [19]: 113%
viability, T/C [20]: 93.8%
viability, T/C [21]: 105%
viability, T/C [22]: 86%
viability, T/C [23]: 57%
viability, T/C [24]: 7.13%
viability, T/C [25]: 102%
viability, T/C [26]: 96.8%
viability, T/C [27]: 87.8%
viability, T/C [28]: 92%
viability, T/C [29]: 46.2%
viability, T/C [30]: 12.2%
viability, T/C [31]: 92.9%
viability, T/C [32]: 93%
viability, T/C [33]: 77.7%
viability, T/C [34]: 70.3%
viability, T/C [35]: 39.3%
viability, T/C [36]: 0.37%

Cn1ncnc1[C@H]1c2n[nH]c(=O)c3cc(F)cc(c23)N[C@@H]1c1ccc(F)cc1 + Cc1[nH]c2ccc(F)cc2c1-c1nc2c3cccnc3c3ncccc3c2[nH]1
IC50 (second compound 0.0316 µM): > 316 nM
IC50 (second compound 0.1 µM): > 316 nM
IC50 (second compound 0.316 µM): > 316 nM
IC50 (second compound 1 µM): > 316 nM
IC50 (second compound 3.16 µM): > 316 nM
IC50 (second compound 10 µM): > 316 nM
viability, T/C [1]: 104%
viability, T/C [2]: 98.2%
viability, T/C [3]: 97%
viability, T/C [4]: 92.5%
viability, T/C [5]: 97.1%
viability, T/C [6]: 94.7%
viability, T/C [7]: 106%
viability, T/C [8]: 89.1%
viability, T/C [9]: 94.2%
viability, T/C [10]: 102%
viability, T/C [11]: 105%
viability, T/C [12]: 87.4%
viability, T/C [13]: 92.7%
viability, T/C [14]: 103%
viability, T/C [15]: 92.9%
viability, T/C [16]: 103%
viability, T/C [17]: 83.3%
viability, T/C [18]: 95.3%
viability, T/C [19]: 100%
viability, T/C [20]: 95.7%
viability, T/C [21]: 91.2%
viability, T/C [22]: 104%
viability, T/C [23]: 96%
viability, T/C [24]: 95.6%
viability, T/C [25]: 101%
viability, T/C [26]: 97.3%
viability, T/C [27]: 85.6%
viability, T/C [28]: 93.2%
viability, T/C [29]: 106%
viability, T/C [30]: 87.3%
viability, T/C [31]: 93.3%
viability, T/C [32]: 95.4%
viability, T/C [33]: 88%
viability, T/C [34]: 78.5%
viability, T/C [35]: 116%
viability, T/C [36]: 78.6%
